Experimental data: publication PMC7224104 (Molecular Diversity, 2020)

Target: T1, porcine liver COMT (Sus scrofa, UniProt Q99028)
T1 sequence (Q99028 1-186): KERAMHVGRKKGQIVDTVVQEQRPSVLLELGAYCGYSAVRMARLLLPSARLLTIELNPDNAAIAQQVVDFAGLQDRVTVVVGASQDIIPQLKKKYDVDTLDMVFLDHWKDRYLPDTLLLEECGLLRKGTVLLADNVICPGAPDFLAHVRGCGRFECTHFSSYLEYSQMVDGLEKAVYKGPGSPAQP
Experiment: biochemical

| Compound | IC50 [µM] |
| --- | --- |
| Cc1c(O)c(=O)ccn1Cc1ccccc1 [Compound 2, 1-Benzyl-3-hydroxy-2-methylpyridin-4-one] | 4.55 ± 0.545 |
| Cc1c(O)c(=O)ccn1CCc1ccccc1 [Compound 3, 3-Hydroxy-2-methyl-1-(2-phenylethyl)pyridin-4-one] | 15 ± 2.1 |
| Cc1c(O)c(=O)ccn1-c1ccccc1 [Compound 1, 3-Hydroxy-2-methyl-1-phenylpyridin-4-one] | 10.9 ± 1.06 |
| Cc1c(O)c(=O)ccn1CCCc1ccccc1 [Compound 4, 3-Hydroxy-2-methyl-1-(3-phenylpropyl)pyridin-4-one] | 18.4 ± 0.974 |
| Cc1c(O)c(=O)ccn1C1CCCCC1 [Compound 6, 1-Cyclohexyl-3-hydroxy-2-methylpyridin-4-one] | 12.2 ± 3.06 |
| Cc1c(O)c(=O)ccn1CCCCc1ccccc1 [Compound 5, 3-Hydroxy-2-methyl-1-(4-phenylbutyl)pyridin-4-one] | 9.05 ± 1.25 |

More lines, now with the values ahead:

| IC50 [µM] | Compound |
| --- | --- |
| 0.0068 | Cc1ccc(C(=O)c2cc(O)c(O)c([N+](=O)[O-])c2)cc1 [Tolcapone, reference compound] |
| 9.31 ± 2.94 | Cc1c(O)c(=O)ccn1-c1ccc(Cl)cc1 [Compound 9, 1-(4-Chlorophenyl)-3-hydroxy-2-methylpyridin-4-one] |
| 5.76 ± 0.664 | Cc1ccc(Cn2ccc(=O)c(O)c2C)cc1 [Compound 10, 3-Hydroxy-2-methyl-1-(4-methylbenzyl)pyridin-4-one] |
| 11.2 ± 1.01 | Cc1c(O)c(=O)ccn1-c1cccc(Cl)c1 [Compound 8, 1-(3-Chlorophenyl)-3-hydroxy-2-methylpyridin-4-one] |
| 19.8 ± 5.86 | Cc1c(O)c(=O)ccn1C1CCCC1 [Compound 7, 1-Cyclopentyl-3-hydroxy-2-methylpyridin-4-one] |
